In publication PMC12682859, “Interconnected roles of mitochondrial carrier proteins ANT, PiT, and UCPs in proton transport” (Frontiers in Molecular Biosciences, 2025):

Experiments:
ANT1 = biological target: T1, ANT1 (Bos taurus, UniProt P02722); assay: biochemical; design: gene SLC25A4; full length, N-terminal His6 tag kept, pelB leader removed; E. coli membranes; mainly monomer in liposomes; SPQ fluorescence quenching assay of proton transport by carriers reconstituted in EYPC liposomes, palmitic acid activated; conditions: EYPC liposomes + 2.5% cardiolipin, 100 uM palmitic acid
T1 sequence (P02722 2-298): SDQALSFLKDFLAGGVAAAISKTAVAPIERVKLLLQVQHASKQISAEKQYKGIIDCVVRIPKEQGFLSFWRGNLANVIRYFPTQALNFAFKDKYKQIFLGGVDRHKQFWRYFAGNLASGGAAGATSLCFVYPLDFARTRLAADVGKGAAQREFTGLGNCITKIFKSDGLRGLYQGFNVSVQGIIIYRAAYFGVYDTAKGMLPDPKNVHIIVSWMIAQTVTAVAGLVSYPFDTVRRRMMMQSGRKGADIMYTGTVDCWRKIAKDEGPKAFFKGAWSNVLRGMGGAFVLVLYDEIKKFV
Experimental: FIGURE 8 Proton transport and CATR-inhibited proton transport rates of reconstituted UCP2, UCP4, ANT1, co-reconstituted UCP4:ANT1 and UCP2:ANT1 (1:1 stoichiometric ratio) in liposomes made from EYPC containing 2.5% added CL, in the presence of 100 μM palmitic acid (PA). Each experiment included final concentrations of 1 μM total combined protein and 1 mM lipid. Dark bars represent the total proton transport rate in the absence of CATR, shaded Gray bars represent the proton transport rate in the presence of 5 μM CATR (for corresponding numerical values, see Supplementary Table S6). Each bar represents the average transport rate of at least 10 repeats (from at least two independent experiments), and the error bars show the standard deviations. Asterisks (*) indicate a statistically significant difference (p < 0.05) between the total proton efflux and CATR-inhibited efflux within each combination. Note that the proton transport data for UCP4, UCP2, and ANT1 are reproduced from Figure 5. For the 1:1 combination of UCP4 and ANT1 heterotetramers, to further confirm the cooperativity between ANT1 and UCP4 dimers, we examined proton transport in the presence of the known ANT inhibitor CATR. CATR is an irreversible substrate inhibitor of ANT that blocks its ADP-ATP exchange function ([Klingenberg et al., 1975]). […]

[1] = biological target: T2, UCP4:ANT1 heterotetramer (1:1) (Homo sapiens; Bos taurus, UniProt O95847+P02722); assay: SPQ fluorescence proton efflux in proteoliposomes; type: biochemical; conditions: read-out: % inhibition at 5 uM
T2 construct: gene SLC25A27; co-reconstituted 1:1 in liposomes from purified N-terminally His6-tagged monomers (bovine ANT1, human UCP4); heterotetramer
T2 sequence (O95847 1-323): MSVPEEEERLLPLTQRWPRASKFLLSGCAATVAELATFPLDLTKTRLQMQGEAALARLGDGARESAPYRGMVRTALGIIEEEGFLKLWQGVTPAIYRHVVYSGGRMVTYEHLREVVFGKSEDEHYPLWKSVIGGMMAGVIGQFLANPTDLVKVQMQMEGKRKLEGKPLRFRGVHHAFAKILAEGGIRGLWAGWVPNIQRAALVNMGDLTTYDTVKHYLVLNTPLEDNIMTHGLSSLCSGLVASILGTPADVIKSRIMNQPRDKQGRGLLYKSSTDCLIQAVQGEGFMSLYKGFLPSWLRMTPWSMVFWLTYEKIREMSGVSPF
T2 sequence (P02722 2-298): T1 sequence (P02722 2-298)

UCP2 = biological target: T3, UCP2 (Homo sapiens, UniProt P55851); assay: biochemical; design: SPQ fluorescence quenching assay of proton transport by carriers reconstituted in EYPC liposomes, palmitic acid activated; conditions: EYPC liposomes + 2.5% cardiolipin, 100 uM palmitic acid
T3 construct: full length, N-terminal His6 tag kept, pelB leader removed; E. coli membranes; homotetramer in liposomes
T3 sequence (P55851 1-309): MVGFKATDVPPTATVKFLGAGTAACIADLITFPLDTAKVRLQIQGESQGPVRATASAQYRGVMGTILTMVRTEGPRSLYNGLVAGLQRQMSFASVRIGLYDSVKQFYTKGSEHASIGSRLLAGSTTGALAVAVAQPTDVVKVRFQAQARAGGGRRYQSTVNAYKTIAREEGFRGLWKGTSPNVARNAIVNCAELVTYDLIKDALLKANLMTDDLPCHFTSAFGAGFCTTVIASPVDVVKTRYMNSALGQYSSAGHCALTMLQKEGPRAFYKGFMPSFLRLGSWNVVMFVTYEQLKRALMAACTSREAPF
Experimental: (§1) FIGURE 8 Proton transport and CATR-inhibited proton transport rates of reconstituted UCP2, UCP4, ANT1, co-reconstituted UCP4:ANT1 and UCP2:ANT1 (1:1 stoichiometric ratio) in liposomes made from EYPC containing 2.5% added CL, in the presence of 100 μM palmitic acid (PA). Each experiment included final concentrations of 1 μM total combined protein and 1 mM lipid. Dark bars represent the total proton transport rate in the absence of CATR, shaded Gray bars represent the proton transport rate in the presence of 5 μM CATR (for corresponding numerical values, see Supplementary Table S6). Each bar represents the average transport rate of at least 10 repeats (from at least two independent experiments), and the error bars show the standard deviations. Asterisks (*) indicate a statistically significant difference (p < 0.05) between the total proton efflux and CATR-inhibited efflux within each combination. Note that the proton transport data for UCP4, UCP2, and ANT1 are reproduced from Figure 5. For the 1:1 combination of UCP4 and ANT1 heterotetramers, to further confirm the cooperativity between ANT1 and UCP4 dimers, we examined proton transport in the presence of the known ANT inhibitor CATR. CATR is an irreversible substrate inhibitor of ANT that blocks its ADP-ATP exchange function ([Klingenberg et al., 1975]). We surmised that irreversible inhibition of the nucleotide exchange activity of ANT and prevention of its alternating transport function could also affect the cooperativity of proton transport activity of ANT1-UCP4 heterotetramers. To verify this hypothesis, we first examined the inhibitory effect of CATR on the proton transport activity of individually reconstituted UCP4 and ANT1. […] A similar inhibitory effect of CATR on the proton transport function of ANT has been reported in a previous study ([Kreiter et al., 2021]). […] Supplementary Material . Figure S1. Schematic of proton transport assay and data analysis. […]

UCP4 = biological target: T4, UCP4 (Homo sapiens, UniProt O95847); assay: biochemical; design: SPQ fluorescence quenching assay of proton transport by carriers reconstituted in EYPC liposomes, palmitic acid activated; conditions: EYPC liposomes + 2.5% cardiolipin, 100 uM palmitic acid
T4 construct: gene SLC25A27; full length, N-terminal His6 tag kept, pelB leader removed; E. coli membranes; homotetramer in liposomes
T4 sequence (O95847 1-323): T2 sequence (O95847 1-323)
Experimental: as §1

[2] = biological target: T5, UCP2:ANT1 heterotetramer (1:1) (Homo sapiens; Bos taurus, UniProt P02722+P55851); assay: biochemical; design: SPQ fluorescence quenching assay of proton transport by carriers reconstituted in EYPC liposomes, palmitic acid activated; conditions: EYPC liposomes + 2.5% cardiolipin, 100 uM palmitic acid
T5 construct: co-reconstituted 1:1 in liposomes from purified N-terminally His6-tagged monomers (bovine ANT1, human UCP2); heterotetramer
T5 sequence (P55851 1-309): T3 sequence (P55851 1-309)
T5 sequence (P02722 2-298): T1 sequence (P02722 2-298)
Experimental: as §1

SMILES: C=C1[C@@H]2CC[C@H]3[C@]4(C)C[C@H](O[C@@H]5O[C@H](CO)[C@@H](OS(=O)(=O)O)[C@H](OS(=O)(=O)O)[C@H]5OC(=O)CC(C)C)CC(C(=O)O)(C(=O)O)[C@H]4CC[C@]3(C2)[C@H]1O [CATR, carboxyatractyloside]
- inhibition at 5 µM (ANT1): 70.1%
- inhibition at 5 µM [1]: ~71%
- inhibition at 5 µM (UCP2): 1.7%
- inhibition at 5 µM (UCP4): 2.7%
- inhibition at 5 µM [2]: 73.6%
